Data reported in ChEMBL document CHEMBL1127472, “Inhibition of topoisomerase I by anthracycline antibiotics: evidence for general inhibition of topoisomerase I by DNA-binding agents” (J Med Chem, 1994).

Legend:
[1] = tested on: DNA topoisomerase 1 (Bos taurus); test: Ratio of DNA relaxation times by topoisomerase in presence of 9 uM of compound (t1/e(+drug) / t 1/e(-drug))
[2] = tested on: DNA topoisomerase 1 (Bos taurus); test: Ratio of DNA relaxation times by topoisomerase in presence of 2 uM of compound (t1/e(+drug) / t 1/e(-drug))
[3] = tested on: DNA topoisomerase 1 (Bos taurus); test: Ratio of DNA relaxation times by topoisomerase in presence of 20 uM of compound (t1/e(+drug) / t 1/e(-drug)); Initial complete inhibition
DNA [4] = test: Binding constant was measured for DNA binding at 20 uM concentration
[5] = tested on: DNA topoisomerase 1 (Bos taurus); test: Ratio of DNA relaxation times by topoisomerase in presence of 20 uM of compound (t1/e(+drug) / t 1/e(-drug)); Complete inhibition
[6] = tested on: DNA topoisomerase 1 (Bos taurus); test: Ratio of DNA relaxation times by topoisomerase in presence of 18 uM of compound (t1/e(+drug) / t 1/e(-drug))
[7] = tested on: DNA topoisomerase 1 (Bos taurus); test: Ratio of DNA relaxation times by topoisomerase in presence of 17 uM of compound (t1/e(+drug) / t 1/e(-drug)); Initial complete inhibition
DNA [8] = test: Binding constant was measured for DNA binding at 17 uM concentration

Structure (SMILES) | Ratio [2] | Ka1 (DNA [4]) | Ratio [5] | other results
COc1cccc2c1C(=O)c1c(O)c3c(c(O)c1C2=O)C[C@@](O)(C(C)=O)C[C@@H]3OC1OC(c2ccccc2)C(O)C(O)C1I (stereo not given in full) | 3.5 | 400 | Complete inhibition | –
COc1cccc2c1C(=O)c1c(O)c3c(c(O)c1C2=O)C[C@@](O)(C(C)=O)C[C@@H]3OC1OC(C)C(O)C(O)C1I (stereo in doubt; 2) | 2 | 120 | Complete inhibition | –
COc1cccc2c1C(=O)c1c(O)c3c(c(O)c1C2=O)C[C@@](O)(C(C)=O)C[C@@H]3OC1OC(C)C(O)C(O)C1I (stereo in doubt; form 1) | 0.76 | – | – | Ratio [6]: 1

Second part, led by results:

Ratio [2] | Ka1 (DNA [4]) | Ratio [5] | Structure (SMILES) | other results
0.92 | – | – | COc1cccc2c1C(=O)c1c(O)c3c(c(O)c1C2=O)C[C@@](O)(C(C)=O)C[C@@H]3OC1CC(O)C(CC2CC(O)C(CC3CCC(=O)C(C)O3)CO2)C(C)O1 (stereo not given in full) | Ratio [1]: 1.4
1.4 | – | – | COc1cccc2c1C(=O)c1c(O)c3c(c(O)c1C2=O)C[C@@](O)(C(C)=O)C[C@@H]3OC1OC(C)C(CC2CC(O)C(CC3CCC(=O)C(C)O3)CO2)C(O)C1I (stereo not given in full) | Ratio [3]: Initial complete inhibition
1.5 | – | – | COc1cccc2c1C(=O)c1c(O)c3c(c(O)c1C2=O)C[C@@](O)(C(C)=O)C[C@@H]3OC1OC(C)C(O)C(O)C1I (stereo in doubt; form 2) | Ratio [7]: Complete inhibition; Ka1 (DNA [8]): 5
